Reference: ChEMBL document CHEMBL4680162, “Synthesis and pharmacological evaluation of chlorin derivatives for photodynamic therapy of cholangiocarcinoma” (Eur J Med Chem, 2020)
pIC50: −log10 of the molar value. Activity calls are given as the source filed them. The rule behind the calls is not given here.

What was measured:
[1] = Drug uptake in human QBC939 cells at 4 uM by fluorescence spectrophotometer analysis; format: ADME, cell-based; settings: qbc939, 4 µM
[2] = Phototoxicity in ICR mouse assessed as neck skin weight at 1 mg/kg, iv followed by 10 mW/cm2 light irradiation for 10 mins at 1 day after drug challenge and measured after 1 day of light irradiation by H and E staining based microscopic analysis (reference value: 36.5 +/- 2.4 mg); format: organism-based; settings: in vivo, 48 h, time 2 day
[3] = Phototoxicity in BALB/c nude mouse xenografted with QBC939 cells assessed as change in kidney at 1 mg/kg, iv followed by laser light irradiation at 120 J/cm2 measured after 1 day of light irradiation by H and E staining based histological analysis; format: organism-based; settings: in vivo, 24 h
QBC939 [4] = experiment: Photodynamic antitumor activity against human QBC939 cells xenografted in BALB/c nude mouse assessed as morphological change in tumor tissue at 1 mg/kg, iv followed by laser light irradiation at 120 J/cm2 measured after 1 day of light irradiation by H and E staining based histological analysis; format: functional, organism-based
[5] = Absorption property of compound in poly-oxyethylene castor oil and PBS assessed as Q band log absorption coefficient by UV-visible spectrophotometric method; format: physicochemical; settings: buffer
[6] = Phototoxicity in BALB/c nude mouse xenografted with QBC939 cells assessed as change in liver at 1 mg/kg, iv followed by laser light irradiation at 120 J/cm2 measured after 1 day of light irradiation by H and E staining based histological analysis; format: organism-based; settings: in vivo, 24 h
QBC939 [7] = experiment: Photodynamic antitumor activity against human QBC939 cells xenografted in BALB/c nude mouse assessed as decrease in tumor weight at 1 mg/kg, iv under dark condition measured after 13 days; format: functional, organism-based; settings: time 13.0 day
[8] = Induction of apoptosis in human QBC939 cells assessed as necrotic cells at 2 uM by annexin V-FITC and propidium iodide staining based flow cytometric analysis; format: functional
[9] = Absorption property of the compound in DMF assessed as Q band maximum absorption wavelength by UV-visible spectrophotometric method; format: physicochemical
[10] = Emission property of compound in poly-oxyethylene castor oil and PBS assessed as Q band emission wavelength by […]; format: physicochemical; settings: buffer
[11] = Absorption property of the compound in DMSO assessed as Q band maximum absorption wavelength by UV-visible spectrophotometric method; format: physicochemical
[12] = Emission property of compound in DMF assessed as Q band emission wavelength by […]; format: physicochemical
[13] = Induction of apoptosis in human QBC939 cells assessed as viable cells at 2 uM in presence of 2J/cm2 light irradiation measured after 2 hrs by annexin V-FITC and propidium iodide staining based flow cytometric analysis (reference value: 99.6 %); format: functional; settings: QBC939, light or radiation study, read-out: Activity
[14] = Induction of apoptosis in human QBC939 cells assessed as late apoptotic cells at 2 uM in presence of 2J/cm2 light irradiation measured after 24 hrs by annexin V-FITC and propidium iodide staining based flow cytometric analysis (reference value: 0.01 %); format: functional
[15] = Phototoxicity in BALB/c nude mouse xenografted with QBC939 cells assessed as change in spleen at 1 mg/kg, iv followed by laser light irradiation at 120 J/cm2 measured after 1 day of light irradiation by H and E staining based histological analysis; format: organism-based; settings: in vivo, 24 h
[16] = Induction of apoptosis in human QBC939 cells assessed as early apoptotic cells at 2 uM by annexin V-FITC and propidium iodide staining based flow cytometric analysis (reference value: 0.01 %); format: functional
[17] = Induction of apoptosis in human QBC939 cells assessed as viable cells at 2 uM by annexin V-FITC and propidium iodide staining based flow cytometric analysis (reference value: 99.99 %); format: functional; settings: read-out: Activity
[18] = Photodynamic antitumor activity against human QBC939 cells xenografted in BALB/c nude mouse assessed as tumor weight at 1 mg/kg, iv followed by laser light irradiation at 120 J/cm2 measured after 13 days; format: functional; settings: time 13 day
[19] = Induction of apoptosis in human QBC939 cells assessed as necrotic cells at 2 uM in presence of 2J/cm2 light irradiation measured after 2 hrs by annexin V-FITC and propidium iodide staining based flow cytometric analysis (reference value: 0.02 %); format: functional
[20] = Drug localization in mitochondria of human QBC939 cells at 4 uM incubated for 4 hrs in dark by mito-tracker green based confocal microscopic method; format: ADME; settings: qbc939, 4 h
[21] = Induction of apoptosis in human QBC939 cells assessed as late apoptotic cells at 2 uM by annexin V-FITC and propidium iodide staining based flow cytometric analysis; format: functional
[22] = Drug uptake in nude mouse xenografted with QBC939 cells assessed as drug level in tumor tissue at 1 mg/kg, iv measured after 8 hrs by fluorescence imaging assay; format: ADME, organism-based, Neoplasm; settings: in vivo
[23] = Absorption property of compound in poly-oxyethylene castor oil and PBS assessed as Q band maximum absorption wavelength by UV-visible spectrophotometric method; format: physicochemical; settings: buffer
[24] = Induction of apoptosis in human QBC939 cells assessed as necrotic cells at 2 uM in presence of 2J/cm2 light irradiation measured after 24 hrs by annexin V-FITC and propidium iodide staining based flow cytometric analysis (reference value: 0.02 %); format: functional
QBC939 [25] = experiment: Photodynamic antitumor activity against human QBC939 cells xenografted in BALB/c nude mouse assessed as increase in tumor tissue damage at 1 mg/kg, iv followed by laser light irradiation at 120 J/cm2 measured after 1 day of light irradiation by H and E staining based histological analysis; format: functional, organism-based
[26] = Absorption property of the compound in DMF assessed as Q band log absorption coefficient by UV-visible spectrophotometric method; format: physicochemical
[27] = Drug uptake in nude mouse xenografted with QBC939 cells assessed as drug level in tumor tissue at 1 mg/kg, iv measured after 24 hrs by fluorescence imaging assay; format: ADME, organism-based, Neoplasm; settings: in vivo
[28] = Induction of singlet oxygen generation in DMF solution irradiated with 650 nanometer laser light in every 1 min by ESR assay; format: functional
[29] = Induction of apoptosis in human QBC939 cells assessed as early apoptotic cells at 2 uM in presence of 2J/cm2 light irradiation measured after 24 hrs by annexin V-FITC and propidium iodide staining based flow cytometric analysis (reference value: 0.01 %); format: functional
[30] = Phototoxicity in ICR mouse assessed as ear weight at 1 mg/kg, iv followed by 10 mW/cm2 light irradiation for 10 mins at 1 day after drug challenge and measured after 1 day of light irradiation by H and E staining based microscopic analysis (reference value: 12.4 +/- 1.5 mg); format: organism-based; settings: in vivo, 48 h, time 2 day
[31] = Phototoxicity against human QBC939 cells assessed as reduction in cell viability irradiated with 4 J/cm2 of 650 nanometer laser light preincubated for 24 hrs in dark and measured after 24 hrs by MTT assay; format: functional, cell-based; settings: QBC939, light or radiation study
[32] = Induction of apoptosis in human QBC939 cells assessed as viable cells at 2 uM in presence of 2J/cm2 light irradiation measured after 24 hrs by annexin V-FITC and propidium iodide staining based flow cytometric analysis (reference value: 99.6 %); format: functional; settings: QBC939, light or radiation study, read-out: Activity

What does the source list for `COC(=O)C1(C(=O)O)C2c3nc(c(-c4ccccc4)c4ccc([nH]4)c(-c4ccccc4)c4nc(c(-c5ccccc5)c5ccc([nH]5)c3-c3ccccc3)C=C4)C21` (configuration not stated)?
Drug uptake [1]: Active; Activity [2]: 37.9 mg; Activity [3]: Non-Toxic; Activity (QBC939 [4]): Active; Activity [5]: 4.2; Activity [6]: Non-Toxic; Activity (QBC939 [7]): inactive; Activity [8]: 3.6%; Activity [9]: 656 nm; Activity [10]: 654 nm; Activity [11]: 650 nm; Activity [12]: 656 nm; viability at 2 µM [13]: 51.3%; Activity [14]: 69.12%; Activity [15]: Non-Toxic; Activity [16]: 0.04%; viability at 2 µM [17]: 94.3%; Activity [18]: 10%; Activity [19]: 10.73%; Drug uptake [20]: Active; Activity [21]: 2.06%; Drug uptake [22]: Active; Activity [23]: 655 nm; Activity [24]: 7.79%; Activity (QBC939 [25]): Active; Activity [26]: 3.02; Drug uptake [27]: Active; Activity [28]: Active; Activity [29]: 20.99%; Activity [30]: 12.8 mg; pIC50 [31]: 6.11; viability at 2 µM [32]: 2.1%
